PubChem BioAssay AID1963833 (Molecular Pharmacology Branch, DTP, NCI, 2024)

Test system: 883617-216-R-J1-PDC complex spheroid viability
Experiment: Anticancer human tumor 883617-216-R-J1-PDC patient-derived bladder carcinoma cell line growth inhibition [POLQ]
Conditions: for IC50: curve of first compound; for viability, T/C: stronger effect = lower value
Procedure, shortened: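 Complex spheroid viability model combining PDC tumour cells with endothelial (HUVEC) and MSC stromal cells. Novobiocin, ART-558 or RP6685 were tested singly and in combination with standard and investigational anticancer drugs. Each was titrated in half-log steps from near clinical Cmax, or from 10 microM where Cmax was unknown.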

[1] = second compound 0.0316 µM, first compound 0.0316 µM
[2] = second compound 0.0316 µM, first compound 0.1 µM
[3] = second compound 0.0316 µM, first compound 0.316 µM
[4] = second compound 0.0316 µM, first compound 1 µM
[5] = second compound 0.0316 µM, first compound 3.16 µM
[6] = second compound 0.0316 µM, first compound 10 µM
[7] = second compound 0.1 µM, first compound 0.0316 µM
[8] = second compound 0.1 µM, first compound 0.1 µM
[9] = second compound 0.1 µM, first compound 0.316 µM
[10] = second compound 0.1 µM, first compound 1 µM
[11] = second compound 0.1 µM, first compound 3.16 µM
[12] = second compound 0.1 µM, first compound 10 µM
[13] = second compound 0.316 µM, first compound 0.0316 µM
[14] = second compound 0.316 µM, first compound 0.1 µM
[15] = second compound 0.316 µM, first compound 0.316 µM
[16] = second compound 0.316 µM, first compound 1 µM
[17] = second compound 0.316 µM, first compound 3.16 µM
[18] = second compound 0.316 µM, first compound 10 µM
[19] = second compound 1 µM, first compound 0.0316 µM
[20] = second compound 1 µM, first compound 0.1 µM
[21] = second compound 1 µM, first compound 0.316 µM
[22] = second compound 1 µM, first compound 1 µM
[23] = second compound 1 µM, first compound 3.16 µM
[24] = second compound 1 µM, first compound 10 µM
[25] = second compound 3.16 µM, first compound 0.0316 µM
[26] = second compound 3.16 µM, first compound 0.1 µM
[27] = second compound 3.16 µM, first compound 0.316 µM
[28] = second compound 3.16 µM, first compound 1 µM
[29] = second compound 3.16 µM, first compound 3.16 µM
[30] = second compound 3.16 µM, first compound 10 µM
[31] = second compound 10 µM, first compound 0.0316 µM
[32] = second compound 10 µM, first compound 0.1 µM
[33] = second compound 10 µM, first compound 0.316 µM
[34] = second compound 10 µM, first compound 1 µM
[35] = second compound 10 µM, first compound 3.16 µM
[36] = second compound 10 µM, first compound 10 µM
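Also: spheroids exposed to compounds for seven days before readout.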
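For viability, T/C in this document: 100% = DMSO vehicle control viability.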

## CC1COCCN1c1cc(C2(S(C)(=N)=O)CC2)nc(-c2ccnc3[nH]ccc23)n1 (stereo unspecified) + COC1C(OC(N)=O)C(O)C(Oc2ccc3c(O)c(NC(=O)c4ccc(O)c(CC=C(C)C)c4)c(=O)oc3c2C)OC1(C)C
Second compound 0.0316 µM
  IC50: 2.63 µM
Second compound 0.1 µM
  IC50: 2.11 µM
Second compound 0.316 µM
  IC50: 2.53 µM
Second compound 1 µM
  IC50: 3.63 µM
Second compound 3.16 µM
  IC50: 1.83 µM
Second compound 10 µM
  IC50: 2.95 µM
[1]
  viability, T/C: 89%
[2]
  viability, T/C: 101%
[3]
  viability, T/C: 84.5%
[4]
  viability, T/C: 83.5%
[5]
  viability, T/C: 43.5%
[6]
  viability, T/C: 31.2%
[7]
  viability, T/C: 91.1%
[8]
  viability, T/C: 91.5%
[9]
  viability, T/C: 87.3%
[10]
  viability, T/C: 69.1%
[11]
  viability, T/C: 39.1%
[12]
  viability, T/C: 37.1%
[13]
  viability, T/C: 99.4%
[14]
  viability, T/C: 89.6%
[15]
  viability, T/C: 82.7%
[16]
  viability, T/C: 67.8%
[17]
  viability, T/C: 42.7%
[18]
  viability, T/C: 38.7%
[19]
  viability, T/C: 102%
[20]
  viability, T/C: 84.8%
[21]
  viability, T/C: 91.2%
[22]
  viability, T/C: 70.8%
[23]
  viability, T/C: 51.9%
[24]
  viability, T/C: 31.3%
[25]
  viability, T/C: 88.3%
[26]
  viability, T/C: 97.3%
[27]
  viability, T/C: 97.1%
[28]
  viability, T/C: 61.8%
[29]
  viability, T/C: 45.7%
[30]
  viability, T/C: 32.6%
[31]
  viability, T/C: 85.1%
[32]
  viability, T/C: 82.4%
[33]
  viability, T/C: 89.9%
[34]
  viability, T/C: 65%
[35]
  viability, T/C: 52.5%
[36]
  viability, T/C: 40.5%

## COc1ccc([C@@H](O)c2cc(-c3ncnc4cc(N5CCOCC5)ccc34)c(F)cc2Cl)nn1 + COC1C(OC(N)=O)C(O)C(Oc2ccc3c(O)c(NC(=O)c4ccc(O)c(CC=C(C)C)c4)c(=O)oc3c2C)OC1(C)C
Second compound 0.0316 µM
  IC50: 2.9 µM
Second compound 0.1 µM
  IC50: 1.8 µM
Second compound 0.316 µM
  IC50: 1.94 µM
Second compound 1 µM
  IC50: 2.44 µM
Second compound 3.16 µM
  IC50: 2.44 µM
Second compound 10 µM
  IC50: 3.21 µM
[1]
  viability, T/C: 92.5%
[2]
  viability, T/C: 104%
[3]
  viability, T/C: 94.5%
[4]
  viability, T/C: 77.5%
[5]
  viability, T/C: 47.9%
[6]
  viability, T/C: 39.1%
[7]
  viability, T/C: 98.5%
[8]
  viability, T/C: 82.2%
[9]
  viability, T/C: 104%
[10]
  viability, T/C: 61.3%
[11]
  viability, T/C: 45.2%
[12]
  viability, T/C: 33%
[13]
  viability, T/C: 93.9%
[14]
  viability, T/C: 89.2%
[15]
  viability, T/C: 76.8%
[16]
  viability, T/C: 56.1%
[17]
  viability, T/C: 46%
[18]
  viability, T/C: 28.2%
[19]
  viability, T/C: 108%
[20]
  viability, T/C: 85.8%
[21]
  viability, T/C: 80.8%
[22]
  viability, T/C: 61.3%
[23]
  viability, T/C: 45.1%
[24]
  viability, T/C: 33.1%
[25]
  viability, T/C: 95.9%
[26]
  viability, T/C: 95.2%
[27]
  viability, T/C: 78.3%
[28]
  viability, T/C: 65.5%
[29]
  viability, T/C: 45.4%
[30]
  viability, T/C: 33.3%
[31]
  viability, T/C: 87%
[32]
  viability, T/C: 79.3%
[33]
  viability, T/C: 86.4%
[34]
  viability, T/C: 68.1%
[35]
  viability, T/C: 51.3%
[36]
  viability, T/C: 34.2%

## Cn1ncnc1[C@H]1c2n[nH]c(=O)c3cc(F)cc(c23)N[C@@H]1c1ccc(F)cc1 + COC1C(OC(N)=O)C(O)C(Oc2ccc3c(O)c(NC(=O)c4ccc(O)c(CC=C(C)C)c4)c(=O)oc3c2C)OC1(C)C
Second compound 0.0316 µM
  IC50: > 0.1 µM
Second compound 0.1 µM
  IC50: > 0.1 µM
Second compound 0.316 µM
  IC50: > 0.1 µM
Second compound 1 µM
  IC50: > 0.1 µM
Second compound 3.16 µM
  IC50: > 0.1 µM
Second compound 10 µM
  IC50: > 0.1 µM
Second compound 0.0316 µM, first compound 0.000316 µM
  viability, T/C: 103%
Second compound 0.0316 µM, first compound 0.001 µM
  viability, T/C: 93.1%
Second compound 0.0316 µM, first compound 0.00316 µM
  viability, T/C: 95.5%
Second compound 0.0316 µM, first compound 0.01 µM
  viability, T/C: 94.9%
[1]
  viability, T/C: 72.8%
[2]
  viability, T/C: 78.4%
Second compound 0.1 µM, first compound 0.000316 µM
  viability, T/C: 110%
Second compound 0.1 µM, first compound 0.001 µM
  viability, T/C: 95.9%
Second compound 0.1 µM, first compound 0.00316 µM
  viability, T/C: 108%
Second compound 0.1 µM, first compound 0.01 µM
  viability, T/C: 80.2%
[7]
  viability, T/C: 75.8%
[8]
  viability, T/C: 69.3%
Second compound 0.316 µM, first compound 0.000316 µM
  viability, T/C: 108%
Second compound 0.316 µM, first compound 0.001 µM
  viability, T/C: 99%
Second compound 0.316 µM, first compound 0.00316 µM
  viability, T/C: 89.9%
Second compound 0.316 µM, first compound 0.01 µM
  viability, T/C: 82.9%
[13]
  viability, T/C: 67.5%
[14]
  viability, T/C: 64%
Second compound 1 µM, first compound 0.000316 µM
  viability, T/C: 95.8%
Second compound 1 µM, first compound 0.001 µM
  viability, T/C: 104%
Second compound 1 µM, first compound 0.00316 µM
  viability, T/C: 101%
Second compound 1 µM, first compound 0.01 µM
  viability, T/C: 80.5%
[19]
  viability, T/C: 83.2%
[20]
  viability, T/C: 76.9%
Second compound 3.16 µM, first compound 0.000316 µM
  viability, T/C: 99.4%
Second compound 3.16 µM, first compound 0.001 µM
  viability, T/C: 102%
Second compound 3.16 µM, first compound 0.00316 µM
  viability, T/C: 101%
Second compound 3.16 µM, first compound 0.01 µM
  viability, T/C: 70.9%
[25]
  viability, T/C: 82.5%
[26]
  viability, T/C: 68%
Second compound 10 µM, first compound 0.000316 µM
  viability, T/C: 94.2%
Second compound 10 µM, first compound 0.001 µM
  viability, T/C: 97.9%
Second compound 10 µM, first compound 0.00316 µM
  viability, T/C: 97.7%
Second compound 10 µM, first compound 0.01 µM
  viability, T/C: 71.6%
[31]
  viability, T/C: 79.5%
[32]
  viability, T/C: 70.8%
